Measured values taken from patent US11168055B2, “Endocyclic thiamidinoamide-arylamide compound and use thereof for treating hepatitis B” (SHANGHAI LONGWOOD BIOPHARMACEUTICALS CO., LTD., priority 2017, dated 2021).
Like-named read-outs stand apart in the source and are kept apart here.

Tests used:
[1] = tested on: HBV DNA in the supernatant of HepG2.2.15; experiment: Determination of anti-HBV activity in HepG2.2.15 cell (HBV DNA in supernatant by qPCR); type: cell-based, Hepatitis B virus; conditions: HBV DNA, read-out: Experiment 2 Cell experiment EC50
HepG2 cells = experiment: Determination of cytotoxicity (HepG2 cells, resazurin assay, 4 days); type: cell-based; conditions: read-out: Experiment 3 Cytotoxicity CC50
Description: Experiment 3: Determination of Cytotoxicity
The cytotoxicity of the test compound was tested using HepG2 cells. The cells were incubated for 4 days in the presence of the test compound. Cell activity was assessed using the resazurin assay.

Row | Compound | EC50 ([1]; HepG2.2.15 cells) [nM] | CC50 (HepG2 cells) [nM] | EC50 ([1]; Hepatitis B virus, HepG2.2.15, HepG2.2.15 cells) [nM]
1 | CC(C)C[C@H]1C=Cc2c(cn(C)c2C(=O)Nc2ccc(F)c(C#N)c2)S(=O)(=NC(C)C)N1 (single isomer, unassigned) [Compound 50u2] | 0.1 to 100 | > 30000 | –
2 | COc1ccc(CC[C@H](C)[C@H]2CCc3c(cn(C)c3C(=O)Nc3cc(F)c(F)c(F)c3)S(=N)(=O)N2)cc1 (single isomer, unassigned) [Compound 20ttt2] | 0.1 to 100 | > 30000 | –
3 | CCN=S1(=O)N[C@@H](CC(C)C)CCc2c1cn(C)c2C(=O)Nc1ccc(F)c(C#N)c1 (single isomer, unassigned) [Compound 60w2] | 0.1 to 100 | > 30000 | –
4 | CC(C)C[C@H]1CCc2c(cn(C)c2C(=O)Nc2ccc(F)c(C#N)c2)S(=O)(=NC2CC2)N1 (single isomer, unassigned) [Compound 60y2] | 0.1 to 100 | > 30000 | –
5 | CC(C)[C@@H]1C=Cc2c(cn(C)c2C(=O)Nc2ccc(F)c(F)c2)S(=N)(=O)N1 (single isomer, unassigned) [Compound 10g2] | 0.1 to 100 | > 30000 | –
6 | CC[C@H](C)[C@H]1C=Cc2c(cn(C)c2C(=O)Nc2ccc(F)c(C#N)c2)S(=N)(=O)N1 (single isomer, unassigned) [Compound 10o2] | 0.1 to 100 | > 30000 | –
7 | CC(C)[C@H]1C=Cc2c(cn(C)c2C(=O)Nc2ccc(F)c(C#N)c2)S(=N)(=O)N1 (single isomer, unassigned) [Compound 10b2] | – | > 30000 | 0.1 to 100
8 | Cn1cc2c(c1C(=O)Nc1cc(F)nc(C#N)c1)CC[C@H](C1CCCCC1)NS2(=N)=O (single isomer, unassigned) [Compound 20dd2] | 0.1 to 100 | > 30000 | –
9 | CC(C)[C@H]1C=Cc2c(cn(C)c2C(=O)Nc2cc(F)nc(C#N)c2)S(=N)(=O)N1 (single isomer, unassigned) [Compound 10e2] | 0.1 to 100 | > 30000 | –
10 | CC(O)[C@H]1C=Cc2c(cn(C)c2C(=O)Nc2cc(F)c(F)c(F)c2)S(=N)(=O)N1 (single isomer, unassigned) [Compound 30c2] | 100 to 1000 | > 30000 | –
11 | CC(O)[C@H]1C=Cc2c(cn(C)c2C(=O)Nc2ccc(F)c(F)c2)S(=N)(=O)N1 (single isomer, unassigned) [Compound 30a2] | 100 to 1000 | > 30000 | –
12 | CC(C)C[C@H]1C=Cc2c(cn(C)c2C(=O)Nc2cc(F)nc(C#N)c2)S(=N)(=O)N1 (single isomer, unassigned) [Compound 10w2] | 0.1 to 100 | > 30000 | –
13 | CC(C)[C@H]1C=Cc2c(cn(C)c2C(=O)Nc2ccc(F)c(F)c2)S(=N)(=O)N1 (single isomer, unassigned) [Compound 10a2] | 0.1 to 100 | > 30000 | –
14 | Cn1cc2c(c1C(=O)Nc1ccc(F)c(C#N)c1)C=C[C@H](C1CCCCC1)NS2(=N)=O (single isomer, unassigned) [Compound 10cc2] | 0.1 to 100 | > 30000 | –
15 | C[C@@H](OCc1ccccc1)[C@H]1CCc2c(cn(C)c2C(=O)Nc2ccc(F)c(C#N)c2)S(=N)(=O)N1 (single isomer, unassigned) [Compound 20ccc2] | 0.1 to 100 | > 30000 | –
16 | CC(C)[C@@H]1C=Cc2c(cn(C)c2C(=O)Nc2ccc(F)c(C#N)c2)S(=N)(=O)N1 (single isomer, unassigned) [Compound 10h2] | > 1000 | > 30000 | –
17 | CC(C)C[C@H]1CCc2c(nn(C)c2C(=O)Nc2ccc(F)c(C#N)c2)S(=N)(=O)N1 (single isomer, unassigned) [Compound 80b2] | 0.1 to 100 | > 30000 | –
18 | CC(C)[C@H]1C=Cc2c(cn(C)c2C(=O)Nc2cc(F)c(F)c(F)c2)S(=N)(=O)N1 (single isomer, unassigned) [Compound 10c2] | 0.1 to 100 | > 30000 | –
19 | C[C@@H](OCc1ccccc1)[C@H]1C=Cc2c(cn(C)c2C(=O)Nc2cc(F)c(F)c(F)c2)S(=N)(=O)N1 (single isomer, unassigned) [Compound 10ddd2] | 0.1 to 100 | > 30000 | –
20 | CN=S1(=O)N[C@@H](C(C)C)CCc2c1nn(C)c2C(=O)Nc1ccc(F)c(C#N)c1 (single isomer, unassigned) [Compound 90a2] | 0.1 to 100 | > 30000 | –
21 | CCN=S1(=O)N[C@@H](CC(C)C)C=Cc2c1cn(C)c2C(=O)Nc1ccc(F)c(C#N)c1 (single isomer, unassigned) [Compound 50t2] | 0.1 to 100 | > 30000 | –
22 | CCN=S1(=O)N[C@@H](C(C)C)CCc2c1cn(C)c2C(=O)Nc1ccc(F)c(C#N)c1 (single isomer, unassigned) [Compound 60g2] | 0.1 to 100 | > 30000 | –
23 | COc1ccc(CC[C@H](C)[C@H]2C=Cc3c(cn(C)c3C(=O)Nc3cc(F)nc(C#N)c3)S(=N)(=O)N2)cc1 (single isomer, unassigned) [Compound 10vvv2] | 0.1 to 100 | > 30000 | –

Row | Compound | EC50 ([1]; HepG2.2.15 cells) [nM] | CC50 (HepG2 cells) [nM] | EC50 ([1]; Hepatitis B virus, HepG2.2.15, HepG2.2.15 cells) [nM]
24 | CN=S1(=O)N[C@@H](CC(C)C)CCc2c1cn(C)c2C(=O)Nc1ccc(F)c(C#N)c1 (single isomer, unassigned) [Compound 60v2] | 0.1 to 100 | > 30000 | –
25 | Cn1cc2c(c1C(=O)Nc1ccc(F)c(F)c1)C=C[C@H](C1CCCCC1)NS2(=N)=O (single isomer, unassigned) [Compound 10bb2] | 0.1 to 100 | > 30000 | –
26 | CC(O)[C@H]1CCc2c(cn(C)c2C(=O)Nc2ccc(F)c(C#N)c2)S(=N)(=O)N1 (single isomer, unassigned) [Compound 40b2] | 100 to 1000 | > 30000 | –
27 | CC(O)[C@H]1C=Cc2c(cn(C)c2C(=O)Nc2ccc(F)c(C#N)c2)S(=N)(=O)N1 (single isomer, unassigned) [Compound 30b2] | 100 to 1000 | > 30000 | –
28 | CC(C)C[C@H]1CCc2c(cn(C)c2C(=O)Nc2ccc(F)c(C#N)c2)S(=O)(=NC(C)C)N1 (single isomer, unassigned) [Compound 60x2] | 0.1 to 100 | > 30000 | –
29 | CC(C)[C@H]1C=Cc2c(nn(C)c2C(=O)Nc2ccc(F)c(C#N)c2)S(=N)(=O)N1 (single isomer, unassigned) [Compound 70a2] | 0.1 to 100 | > 30000 | –
30 | CC(C)[C@H]1CCc2c(cn(C)c2C(=O)Nc2ccc(F)c(C#N)c2)S(=N)(=O)N1 (single isomer, unassigned) [Compound 20b2] | 0.1 to 100 | > 30000 | –
31 | Cn1cc2c(c1C(=O)Nc1ccc(F)c(F)c1)CC[C@H](CO)NS2(=N)=O (single isomer, unassigned) [Compound 40g2] | 100 to 1000 | > 30000 | –
32 | CC(C)C[C@H]1C=Cc2c(cn(C)c2C(=O)Nc2ccc(F)c(C#N)c2)S(=O)(=NC2CC2)N1 (single isomer, unassigned) [Compound 50v2] | 0.1 to 100 | > 30000 | –
33 | CC(C)C[C@H]1C=Cc2c(nn(C)c2C(=O)Nc2ccc(F)c(C#N)c2)S(=N)(=O)N1 (single isomer, unassigned) [Compound 70b2] | 0.1 to 100 | > 30000 | –
34 | C[C@@H](OCc1ccccc1)[C@H]1C=Cc2c(cn(C)c2C(=O)Nc2ccc(F)c(C#N)c2)S(=N)(=O)N1 (single isomer, unassigned) [Compound 10ccc2] | 0.1 to 100 | > 30000 | –
35 | CN=S1(=O)N[C@@H](C(C)C)CCc2c1cn(C)c2C(=O)Nc1ccc(F)c(F)c1 (single isomer, unassigned) [Compound 60a2] | 0.1 to 100 | > 30000 | –
36 | CC(C)[C@H]1CCc2c(nn(C)c2C(=O)Nc2ccc(F)c(C#N)c2)S(=N)(=O)N1 (single isomer, unassigned) [Compound 80a2] | 0.1 to 100 | > 30000 | –
37 | CC(C)[C@H]1CCc2c(cn(C)c2C(=O)Nc2ccc(F)c(F)c2)S(=N)(=O)N1 (single isomer, unassigned) [Compound 20a2] | 0.1 to 100 | > 30000 | –
38 | CC(O)[C@H]1CCc2c(cn(C)c2C(=O)Nc2ccc(F)c(F)c2)S(=N)(=O)N1 (single isomer, unassigned) [Compound 40a2] | 100 to 1000 | > 30000 | –
39 | CC(C)[C@H]1C=Cc2c(cn(C)c2C(=O)Nc2ccnc(C(F)F)c2)S(=N)(=O)N1 (single isomer, unassigned) [Compound 10f2] | 0.1 to 100 | > 30000 | –
40 | CC(C)[C@H]1CCc2c(cn(C)c2C(=O)Nc2cc(F)c(F)c(F)c2)S(=N)(=O)N1 (single isomer, unassigned) [Compound 20c2] | 0.1 to 100 | > 30000 | –
41 | CN=S1(=O)N[C@@H](C(C)C)C=Cc2c1cn(C)c2C(=O)Nc1ccc(F)c(F)c1 (single isomer, unassigned) [Compound 50a2] | 0.1 to 100 | > 30000 | –
42 | Cn1cc2c(c1C(=O)Nc1ccnc(C(F)F)c1)CC[C@H](C1CCCCC1)NS2(=N)=O (single isomer, unassigned) [Compound 20ee2] | 0.1 to 100 | > 30000 | –
43 | CN=S1(=O)N[C@@H](CC(C)C)CCc2c1nn(C)c2C(=O)Nc1ccc(F)c(C#N)c1 (single isomer, unassigned) [Compound 90b2] | 0.1 to 100 | > 30000 | –
44 | CC[C@H](C)[C@H]1C=Cc2c(cn(C)c2C(=O)Nc2ccc(F)c(F)c2)S(=N)(=O)N1 (single isomer, unassigned) [Compound 10n2] | 0.1 to 100 | > 30000 | –
45 | Cn1cc2c(c1C(=O)Nc1ccc(F)c(F)c1)C=C[C@H](CO)NS2(=N)=O (single isomer, unassigned) [Compound 30g2] | 100 to 1000 | > 30000 | –
46 | CN=S1(=O)N[C@@H](CC(C)C)C=Cc2c1cn(C)c2C(=O)Nc1ccc(F)c(C#N)c1 (single isomer, unassigned) [Compound 50s2] | 0.1 to 100 | > 30000 | –
